What was measured:
[1] = system: invasion of colorectal cancer cells; experiment: In vivo relative invation (invasion; EV and KITENIN controls, no method described); conditions: relative to EV (=1); KIT = KITENIN
KAI1 promoter = KAI1 promoter luciferase reporter assay in transfected Caco2 cells; type: cell-based, human; conditions: 1 μM compound, 16 hours, transfected Caco2 cells, luciferase activity relative to DMSO control (=1); for fold induction at 1 µM: Homo sapiens, Caco-2, 16 h, read-out: Relative KAI promoter activity

SMILES	In vivo relative invation [1]	fold induction at 1 µM (KAI1 promoter)	Relative KAI promoter activity (KAI1 promoter)
O=C(CNC(=O)c1ccc(CN(C2CCCCC2)C2CCCCC2)cc1)c1ccccc1 [Example 270, 4-((dicyclohexylamino)methyl)-N-(2-oxo-2-phenylethyl)benzamide]	1.238	1.47	–
O=C(CNC(=O)c1ccc(F)cc1Cl)c1ccc(Cl)cc1 [Example 76, 2-chloro-N-(2-(4-chlorophenyl)-2-oxoethyl)-4-fluorobenzamide]	1.12	0.83	–
O=C(CNC(=O)c1ccc(CN2CCN(c3ccc([N+](=O)[O-])cc3)CC2)cc1)c1ccccc1 [Example 261, 4-((4-(4-nitrophenyl)piperazin-1-yl)methyl)-N-(2-oxo-2-phenylethyl)benzamide]	1.197	1.25	–
CN(C)c1ccc(C(=O)CNC(=O)c2cccc(Cl)c2)cc1 [Example 94, 3-chloro-N-(2-(4-(dimethylamino)phenyl)-2-oxoethyl)benzamide]	1.096	1.81	–
COCc1ccccc1C(=O)NCC(=O)c1ccc(Cl)cc1 [Example 59, N-(2-(4-chlorophenyl)-2-oxoethyl)-2-(methoxymethyl)benzamide]	1.007	1.56	–
CS(=O)(=O)N1CCC(Oc2ccccc2C(=O)NCC(=O)c2ccccc2)CC1 [Example 183, 2-((1-(methylsulfonyl)piperidin-4-yl)oxy)-N-(2-oxo-2-phenylethyl)benzamide]	1.194	0.96	–
CCCc1ccccc1NC(=O)COc1ccccc1C(=O)NCC(=O)c1ccccc1 [Example 210, 2-(2-oxo-2-((2-propylphenyl)amino)ethoxy)-N-(2-oxo-2-phenylethyl)benzamide]	0.9274	1.03	–
CCC(=O)NCC(=O)c1cccnc1 [Example 136, N-(2-oxo-2-(pyridin-3-yl)ethyl) propionamide]	1.297	1.17	–
CCN(C)Cc1cccc(C(=O)NCC(=O)c2cccc(OC)c2)c1 [Example 287, 3-((ethyl (methyl)amino)methyl)-N-(2-(3-methoxyphenyl)-2-oxoethyl)benzamide]	1.376	2.06	–
O=C(CNC(=O)c1ccccc1OC1CCN(C(=O)c2ccc(C(F)(F)F)cc2)CC1)c1ccccc1 [Example 193, N-(2-oxo-2-phenylethyl)-2-((1-(4-(trifluoromethyl)benzoyl)piperidin-4-yl)oxy)benzamide]	1.214	0.82	–
O=C(CNC(=O)C1CC1)c1ccccc1 [Example 16, N-(2-oxo-2-phenylethyl)cyclopropanecarboxamide]	0.9645	0.92	–
C/C=C/C(=O)N1CCC(Oc2ccccc2C(=O)NCC(=O)c2ccccc2)CC1 [Example 158, (E)-2-((1-(but-2-enoyl)piperidin-4-yl)oxy)-N-(2-oxo-2-phenylethyl)benzamide]	1.171	1	–
O=C(CNC(=O)C1CCCCC1)c1ccc(Cl)cc1 [Example 55, N-(2-(4-chlorophenyl)-2-oxoethyl)cyclohexanecarboxamide]	1.179	0.67	–
COc1ccc(S(=O)(=O)N2CCC(Oc3ccccc3C(=O)NCC(=O)c3ccccc3)CC2)cc1 [Example 189, 2-((1-((4-methoxyphenyl)sulfonyl)piperidin-4-yl)oxy)-N-(2-oxo-2-phenylethyl)benzamide]	1.185	0.9	–
COc1cccc(C(=O)CNC(=O)c2ccc(Cl)cc2)c1 [Example 122, 4-chloro-N-(2-(3-methoxyphenyl)-2-oxoethyl)benzamide]	1.374	1.65	–
C=CCN(CC=C)Cc1cccc(C(=O)NCC(=O)c2ccccc2)c1 [Example 241, 3-((diallylamino)methyl)-N-(2-oxo-2-phenylethyl)benzamide]	1.126	1.1	–
O=C(CNC(=O)c1ccccc1F)c1ccc(N2CCOCC2)cc1 [Example 137, 2-fluoro-N-(2-(4-morpholinophenyl)-2-oxoethyl)benzamide]	1.231	1.19	–
O=C(CNS(=O)(=O)c1ccc(Cl)cc1)c1ccc(N2CCOCC2)cc1 [Example 147, 4-chloro-N-(2-(4-morpholinophenyl)-2-oxoethyl)benzenesulfonamide]	0.9524	1.1	–
O=C(CNC(=O)c1ccc(F)cc1F)c1ccccc1 [Example 22, 2,4-difluoro-N-(2-oxo-2-phenylethyl)benzamide]	1.163	1.56	–
O=C(CNC(=O)c1ccc(F)c(F)c1)c1ccccc1 [Example 35, 3,4-difluoro-N-(2-oxo-2-phenylethyl)benzamide]	0.8811	1.28	–

SMILES	In vivo relative invation [1]	fold induction at 1 µM (KAI1 promoter)	Relative KAI promoter activity (KAI1 promoter)
CC(=O)N1CCC(Oc2ccccc2C(=O)NCC(=O)c2ccccc2)CC1 [Example 182, 2-((1-acetylpiperidin-4-yl)oxy)-N-(2-oxo-2-phenylethyl)benzamide]	1.095	0.93	–
O=C(CNC(=O)C1CCC1)c1ccc(Cl)cc1 [Example 57, N-(2-(4-chlorophenyl)-2-oxoethyl)cyclobutanecarboxamide]	1.217	0.94	–
CN(C)c1ccc(C(=O)CNC(=O)c2ccc(Cl)cc2)cc1 [Example 88, 4-chloro-N-(2-(4-(dimethylamino)phenyl)-2-oxoethyl)benzamide]	0.9216	1.35	–
COc1ccc(C(=O)NCC(=O)c2ccc(N(C)C)cc2)cc1 [Example 104, N-(2-(4-(dimethylamino)phenyl)-2-oxoethyl)-4-methoxybenzamide]	1.115	–	1.78
O=C(CNC(=O)c1ccccc1F)c1ccc(Cl)cc1 [Example 44, N-(2-(4-chlorophenyl)-2-oxoethyl)-2-fluorobenzamide]	0.9752	0.98	–
CC1CN(Cc2ccc(C(=O)NCC(=O)c3ccccc3)cc2)CC(C)O1 (centres unmarked) [Example 278, 4-((2,6-dimethylmorpholino)methyl)-N-(2-oxo-2-phenylethyl)benzamide]	1.217	1.38	–
Cc1cc(C)cc(C(=O)NCC(=O)c2ccc(N(C)C)cc2)c1 [Example 120, N-(2-(4-(dimethylamino)phenyl)-2-oxoethyl)-3,5-dimethylbenzamide]	1.097	1.38	–
CC(C)N(C)Cc1ccc(C(=O)NCC(=O)c2ccccc2)cc1 [Example 256, 4-((isopropyl(methyl)amino)methyl)-N-(2-oxo-2-phenylethyl)benzamide]	1.267	2.25	–
O=C(COc1ccccc1C(=O)NCC(=O)c1ccccc1)Nc1ccc(Oc2ccccc2)cc1 [Example 221, 2-(2-oxo-2-((4-phenoxyphenyl)amino)ethoxy)-N-(2-oxo-2-phenylethyl)benzamide]	1.322	0.961	–
O=C(CNS(=O)(=O)c1ccc(F)cc1)c1ccc(Cl)cc1 [Example 67, N-(2-(4-chlorophenyl)-2-oxoethyl)-4-fluorobenzenesulfonamide]	1.175	0.87	–
C=CCN(CC=C)Cc1ccc(C(=O)NCC(=O)c2ccccc2)cc1 [Example 265, 4-((diallylamino)methyl)-N-(2-oxo-2-phenylethyl)benzamide]	1.343	1.91	–
COc1ccc(C(=O)NCC(=O)c2ccc(Cl)cc2)cc1 [Example 62, N-(2-(4-chlorophenyl)-2-oxoethyl)-4-methoxybenzamide]	1.122	–	1.03
CC(C)(C)OC(=O)N1CCN(Cc2cccc(C(=O)NCC(=O)c3ccccc3)c2)CC1 [Example 245, tert-butyl 4-(3-((2-oxo-2-phenylethyl)carbamoyl)benzyl) piperazine-1-carboxylate]	1.126	1.35	–
Cc1cc(C)cc(C(=O)NCC(=O)c2ccc(Cl)cc2)c1 [Example 83, N-(2-(4-chlorophenyl)-2-oxoethyl)-3,5-dimethylbenzamide]	1.171	0.8	–
CN(CCO)Cc1cccc(C(=O)NCC(=O)c2ccccc2)c1 [Example 243, 3-(((2-hydroxyethyl) (methyl)amino)methyl)-N-(2-oxo-2-phenylethyl)benzamide]	1.105	1.48	–
CN(C)c1ccc(C(=O)CNS(=O)(=O)Cc2ccccc2)cc1 [Example 110, N-(2-(4-(dimethylamino)phenyl)-2-oxoethyl)-1-phenylmethanesulfonamide]	1.009	1.49	–
O=C(CNC(=O)C1CC1)c1ccc(Cl)cc1 [Example 56, N-(2-(4-chlorophenyl)-2-oxoethyl)cyclopropanecarboxamide]	1.249	0.92	–
CCCCC(=O)N1CCC(Oc2ccccc2C(=O)NCC(=O)c2ccccc2)CC1 [Example 172, N-(2-oxo-2-phenylethyl)-2-((1-pentanoylpiperidin-4-yl)oxy)benzamide]	1.16	0.93	–
Cc1ccc(S(=O)(=O)NCC(=O)c2ccc(Cl)cc2)cc1 [Example 68, N-(2-(4-chlorophenyl)-2-oxoethyl)-4-methylbenzenesulfonamide]	1.125	0.88	–
COc1ccc(C(=O)NCC(=O)c2ccc(N3CCOCC3)cc2)cc1 [Example 140, 4-methoxy-N-(2-(4-morpholinophenyl)-2-oxoethyl)benzamide]	1.553	1.15	–

From patent US20230150924A1, “NOVEL COMPOUND HAVING CANCER METASTASIS INHIBITORY ACTIVITY, PREPARATION METHOD THEREFOR, AND PHARMACEUTICAL COMPOSITION FOR INHIBITING CANCER METASTASIS AND INVASION OR TREATING COLORECTAL CANCER, COMPRISING COMPOUND” (CELLGENTEK CO., LTD., priority 2019, published 2023)
